Literature values as cited in US20100034838A1, “Transdermal Administration of Active Agents for Systemic Effect” (priority 2005, published 2010).

SMILES: CN1CCCC1c1cccnc1 (centres unmarked) [nicotine]
- nicotine levels in the blood (nicotine patches, approximately 4-6 hours after adhesion of a medicinal patch to the skin): 10 to 15 ng/mL
- blood nicotine peak (smoking a cigarette, approximately 5 minutes after smoking is commenced): about 25 ng/ml
